Data taken from paper PMC3433414, “Oral Administration of the Pimelic Diphenylamide HDAC Inhibitor HDACi 4b Is Unsuitable for Chronic Inhibition of HDAC Activity in the CNS In Vivo” (PLoS ONE, 2012).

Key:
[1] = biological target: T1, catalytic domain HDAC4 (Homo sapiens, UniProt P56524); assay: Two-step fluorogenic deacetylase assay, recombinant HDAC4; type: biochemical; details: up to 50 µM
T1 construct: catalytic domain HDAC4(αα 648–1057); purchased Emerald Biosciences (Seattle, WA)
Text: (§1) To assess the biochemical and cellular potency of 4b and its conversion products/metabolites, we utilized the two-step fluorogenic assay which measures the HDAC-mediated catalytic conversion of synthetic acetylated lysine substrates. In brief, on deacetylation of the substrates by HDAC activity, a protease site is unmasked which allows subsequent trypsin-mediated cleavage and release of the highly flourescent AMC molecules in a subsequent step of the assay. The substrates used were Lys_Ac_AMC (Bachem I-1875) for HDAC3 and (Ac)Arg-Gly-Lys(Ac) (Bachem I-1925) for HDAC1 and HDAC2. […] However, the relatively labile and sterically more demanding trifluoracetyl group is readily hydrolyzed by the catalytically less avid Class IIa enzymes, allowing measurement of Class IIa activity using the 2-step fluorogenic assay. […]
(§2) For evaluation of the class selectivity of the compounds, we assessed inhibition against purified recombinant human full length HDAC1 (cat# 50051), HDAC2 (cat# 50052), HDAC3-NcoR2 (cat# 50003) and HDAC8 (cat# 50008): as representative of Class I activity; catalytic domain HDAC4(αα 648–1057), HDAC5 (αα 657–1123; cat # 50005), HDAC7 (αα 518-end; cat # 50007) and HDAC9 (αα 604–1066; cat # 50009) activity: representing all Class IIa activity; and full length HDAC6 (cat#50006): representing Class IIb activity. […]

[2] = system: diversity panel of 72 binding and 29 enzyme assays; assay: Cerep Diversity Profile, overall; details: 10 µM, duplicate
Text: In addition to the HDAC profiling performed, we also queried 4b for any apparent potential off-target effects, which could complicate any finding of efficacy or adverse events in vivo due to ‘polypharmacy’. This was accomplished by screening against a ‘diversity panel’ of 72 binding and 29 enzyme assays, comprised of roughly equal numbers of selective central and peripheral therapeutically relevant targets (Cerep Diversity Profile). This panel included representative targets from diverse enzyme families, G protein coupled receptors, steroid nuclear receptors, voltage- and ligand-gated ion channels. While not totally inclusive, it is a useful tool for discovery compounds to assess their viability as proof of concept molecules to specifically query a particular target. 4b was initially screened at 10 µM in duplicate. The full set of results is provided as Table S1. […] This clean in vitro profile was considered acceptable to proceed to ADME and pharmacokinetic studies.

[3] = biological target: T2, HDAC6 (Homo sapiens, UniProt Q9UBN7); assay: Two-step fluorogenic deacetylase assay, recombinant HDAC6; type: biochemical; details: up to 50 µM
T2 construct: full length HDAC6 (cat#50006); purchased BPS Bioscience (San Diego, CA) 50006
Text: as §1, §2

T1 sequence (P56524 648-1057): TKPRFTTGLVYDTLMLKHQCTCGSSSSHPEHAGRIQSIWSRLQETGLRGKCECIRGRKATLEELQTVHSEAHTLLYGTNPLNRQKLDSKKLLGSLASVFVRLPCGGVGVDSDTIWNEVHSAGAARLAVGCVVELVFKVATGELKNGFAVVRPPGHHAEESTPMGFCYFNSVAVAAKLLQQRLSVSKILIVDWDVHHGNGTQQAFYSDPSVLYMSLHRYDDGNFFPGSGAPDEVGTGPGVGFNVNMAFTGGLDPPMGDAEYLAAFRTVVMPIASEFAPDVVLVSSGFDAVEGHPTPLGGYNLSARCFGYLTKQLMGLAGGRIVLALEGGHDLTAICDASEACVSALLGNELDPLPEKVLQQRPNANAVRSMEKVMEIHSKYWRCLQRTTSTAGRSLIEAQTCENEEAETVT
T2 sequence (Q9UBN7 whole entry): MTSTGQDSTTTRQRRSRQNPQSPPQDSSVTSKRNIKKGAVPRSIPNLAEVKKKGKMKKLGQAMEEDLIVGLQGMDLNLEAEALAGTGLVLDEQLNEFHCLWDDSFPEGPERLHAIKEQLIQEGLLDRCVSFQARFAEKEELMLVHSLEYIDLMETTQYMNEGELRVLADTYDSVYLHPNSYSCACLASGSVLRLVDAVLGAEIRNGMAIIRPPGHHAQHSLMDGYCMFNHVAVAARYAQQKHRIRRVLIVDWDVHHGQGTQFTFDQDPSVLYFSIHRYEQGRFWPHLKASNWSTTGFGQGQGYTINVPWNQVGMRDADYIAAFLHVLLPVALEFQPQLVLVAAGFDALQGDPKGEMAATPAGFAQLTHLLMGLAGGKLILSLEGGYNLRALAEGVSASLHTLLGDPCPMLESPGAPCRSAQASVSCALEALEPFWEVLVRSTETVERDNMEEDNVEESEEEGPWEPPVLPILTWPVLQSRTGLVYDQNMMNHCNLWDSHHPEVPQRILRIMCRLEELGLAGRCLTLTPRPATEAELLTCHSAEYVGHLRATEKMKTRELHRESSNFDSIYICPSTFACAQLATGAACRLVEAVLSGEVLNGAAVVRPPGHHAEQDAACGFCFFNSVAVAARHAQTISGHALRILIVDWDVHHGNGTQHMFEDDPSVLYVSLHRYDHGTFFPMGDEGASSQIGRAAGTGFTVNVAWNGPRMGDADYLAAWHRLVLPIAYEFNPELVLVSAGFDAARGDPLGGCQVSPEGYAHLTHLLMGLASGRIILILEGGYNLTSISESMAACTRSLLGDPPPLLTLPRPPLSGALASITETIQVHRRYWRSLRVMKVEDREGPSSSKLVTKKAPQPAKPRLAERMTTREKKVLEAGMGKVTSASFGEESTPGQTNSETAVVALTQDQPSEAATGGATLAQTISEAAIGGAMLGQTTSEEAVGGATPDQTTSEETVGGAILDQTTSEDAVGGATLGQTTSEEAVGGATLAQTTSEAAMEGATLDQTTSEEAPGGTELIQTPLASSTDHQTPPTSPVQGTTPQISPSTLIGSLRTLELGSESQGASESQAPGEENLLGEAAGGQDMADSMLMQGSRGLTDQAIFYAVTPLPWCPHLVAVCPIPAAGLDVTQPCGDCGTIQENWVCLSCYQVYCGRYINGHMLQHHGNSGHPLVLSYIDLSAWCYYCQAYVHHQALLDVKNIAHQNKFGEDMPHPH

Nc1ccccc1NC(=O)CCCCCC(=O)Nc1ccccc1 [Compound 4b]
activity against HDAC4 [1]: No activity | off-target profile in the Cerep Diversity Profile [2]: clean | activity against HDAC6 [3]: No activity
